Patent US9994564B2, “Myosin II ATPase inhibitor compounds” (priority 2014, dated 2018)
Values joined by “and” are separate entries in the source; they are usually repeats but may differ in a detail not shown here. Equal entries are not always repeated.

Experiments:
[1] = test system: rat bladder smooth muscle strip (detrusor); experiment: Relaxation of rat bladder strips pre-contracted with 60 mM KCl or 1 μM carbachol (organ bath); assay type: cell-based; conditions: for relaxation of KCl and CC evoked detrusor contraction: 60 mM KCl or 1 μM CC pre-contraction, maximal pre-contraction = 100%; for bladder relaxation in vitro, enantiomer compared with racemic blebbistatin mixture: in vitro studies
Description: (§1) Experimental materials and methods: All chemical were from Sigma (St. Louis, USA) except (±) blebbistatin (racemic blebbistatin) was from Tocris (Ellisville, Mo.). […] Rat bladder body and aorta were obtained from 17 (275-300 gram) adult male Sprague-Dawley (SD) rats (Charles River; Raleigh, N.C.). All animal studies were approved by the Animal Institute Committee of the Albert Einstein College of Medicine.
In vitro organ bath studies: The in vitro contractility studies were performed as previously described by Zhang X, Kuppam D, Aydin M, Melman A, DiSanto M. “In vitro and in vivo relaxation of corpus cavernosum smooth muscle by the selective myosin II inhibitor, blebbistatin.” J Sex Med 2009; 6:2661-71, Sandhu K S, Chua R G, Zhang X, et al. “Regional heterogeneity in expression of the sphingosine-1-phosphate pathway in the female rat lower urinary tract”; Am J Obstet Gynecol 2009; 200:576-7; Chua R G, Calenda G, Zhang X, et al. “Testosterone regulates erectile function and Vcsal expression in the corpora of rats”; Mol Cell Endocrinol 2009; 303:67-73. Bladder strips were mounted longitudinally and aortic rings horizontally in a 5 ml organ bath—Multi-Myograph Model 810MS (bladder) or Model 610M (aorta) (Danish Myo Technology; Aarhus, Denmark). The myograph was connected in line to a PowerLab 4/30 Data Acquisition System (ADInstruments; Colorado Springs, Colo.) and in turn to a Dual-Core processor Pentium computer for real-time monitoring of physiological force. The smooth muscle strips were equilibrated at least 1 hour in Krebs-Henseleit (Krebs) buffer at 37° C. with continuous bubbling of 95% O2 and 5% CO2 and buffer was changed every 15 minutes (min). Strips were continuously adjusted to resting tension (0.5 g for rat bladder and 1 g for human bladder (Yamamoto M, Harm S C, Grasser W A, Thiede M A. “Parathyroid hormone-related protein in the rat urinary bladder: a smooth muscle relaxant produced locally in response to mechanical stretch.” Proc Natl Acad Sci USA 1992; 89:5326-30. After equilibration, rat detrusor was contracted with 60 mM KCl and the force induced by cumulative concentrations (10-5-10-1 M) of carbachol (CC) or electrical field stimulation (EFS) at varying frequencies of 2-32 Hz, pulse duration 1.5 ms, train 5 s, and 80 V, was normalized to that KCl response. Next, all strips were pre-contracted with 60 mM KCl, or 1 μM CC (rat bladder), or 20 nM endothelin-1 (ET-1) (human bladder) and allowed to reach stable tension and then the relaxant effects of increasing doses of blebbistatin were evaluated. For rat detrusor, after pre-incubation with blebbistatin (10 μM) for 30 min, its inhibitory effect on CC (1 μM) induced contractility or aforementioned EFS mediated contractility was also tested. Additionally, the influence of blebbistatin (10 μM) on rat detrusor spontaneous activity and basal tone was evaluated.

[2] = test system: rat bladder smooth muscle strip (detrusor); experiment: Pre-incubation with blebbistatin: carbachol-induced rat detrusor contraction; assay type: cell-based; conditions: for attenuation of carbachol (CC) responsiveness: pre-incubation 10 μM for 30 min, 1 μM CC
Description: as §1
(§2) In vitro organ bath studies: The in vitro contractility studies were performed as previously described by Zhang X, Kuppam D, Aydin M, Melman A, DiSanto M. “In vitro and in vivo relaxation of corpus cavernosum smooth muscle by the selective myosin II inhibitor, blebbistatin.” J Sex Med 2009; 6:2661-71, Sandhu K S, Chua R G, Zhang X, et al. “Regional heterogeneity in expression of the sphingosine-1-phosphate pathway in the female rat lower urinary tract”; Am J Obstet Gynecol 2009; 200:576-7; Chua R G, Calenda G, Zhang X, et al. “Testosterone regulates erectile function and Vcsal expression in the corpora of rats”; Mol Cell Endocrinol 2009; 303:67-73. Bladder strips were mounted longitudinally and aortic rings horizontally in a 5 ml organ bath—Multi-Myograph Model 810MS (bladder) or Model 610M (aorta) (Danish Myo Technology; Aarhus, Denmark). The myograph was connected in line to a PowerLab 4/30 Data Acquisition System (ADInstruments; Colorado Springs, Colo.) and in turn to a Dual-Core processor Pentium computer for real-time monitoring of physiological force. The smooth muscle strips were equilibrated at least 1 hour in Krebs-Henseleit (Krebs) buffer at 37° C. with continuous bubbling of 95% O2 and 5% CO2 and buffer was changed every 15 minutes (min). Strips were continuously adjusted to resting tension (0.5 g for rat bladder and 1 g for human bladder (Yamamoto M, Harm S C, Grasser W A, Thiede M A. “Parathyroid hormone-related protein in the rat urinary bladder: a smooth muscle relaxant produced locally in response to mechanical stretch.” Proc Natl Acad Sci USA 1992; 89:5326-30. After equilibration, rat detrusor was contracted with 60 mM KCl and the force induced by cumulative concentrations (10-5-10-1 M) of carbachol (CC) or electrical field stimulation (EFS) at varying frequencies of 2-32 Hz, pulse duration 1.5 ms, train 5 s, and 80 V, was normalized to that KCl response. Next, all strips were pre-contracted with 60 mM KCl, or 1 μM CC (rat bladder), or 20 nM endothelin-1 (ET-1) (human bladder) and allowed to reach stable tension and then the relaxant effects of increasing doses of blebbistatin were evaluated. […] Additionally, the influence of blebbistatin (10 μM) on rat detrusor spontaneous activity and basal tone was evaluated.

[3] = test system: rat bladder smooth muscle strip (detrusor); experiment: Pre-incubation with blebbistatin: electrical field stimulation-induced rat bladder contraction; assay type: cell-based; conditions: pre-incubation 10 μM for 30 min, 32 Hz
Description: as §1
In vitro organ bath studies: The in vitro contractility studies were performed as previously described by Zhang X, Kuppam D, Aydin M, Melman A, DiSanto M. “In vitro and in vivo relaxation of corpus cavernosum smooth muscle by the selective myosin II inhibitor, blebbistatin.” J Sex Med 2009; 6:2661-71, Sandhu K S, Chua R G, Zhang X, et al. “Regional heterogeneity in expression of the sphingosine-1-phosphate pathway in the female rat lower urinary tract”; Am J Obstet Gynecol 2009; 200:576-7; Chua R G, Calenda G, Zhang X, et al. “Testosterone regulates erectile function and Vcsal expression in the corpora of rats”; Mol Cell Endocrinol 2009; 303:67-73. […] Next, all strips were pre-contracted with 60 mM KCl, or 1 μM CC (rat bladder), or 20 nM endothelin-1 (ET-1) (human bladder) and allowed to reach stable tension and then the relaxant effects of increasing doses of blebbistatin were evaluated. […]

[4] = test system: human bladder smooth muscle strip; experiment: Relaxation of human bladder (base) strips pre-contracted with 20 nM endothelin-1; assay type: cell-based; conditions: for relaxation of human bladder pre-contracted with endothelin-1: 20 nM ET-1; for relaxation/block of endothelin-1 induced human bladder contraction (in words): dose-dependent
Description: as §1, §2

rat bladder strips = experiment: Spontaneous contractions and basal tone of rat bladder strips; assay type: cell-based
Description: as §1, §2

bladder of awake rat = experiment: Awake rat cystometry (urodynamics) after intravesical blebbistatin; assay type: in vivo
Description: Cystometric evaluation of bladder function was performed as previously described on a separate set of 5 rats. See Malmgren A, Andersson P O, Uvelius B. “Bladder function in rats with short- and long-term diabetes; effects of age and muscarinic blockade” J Urol 1989; 142:1608-14; Melman A, Zotova E, Kim M, et al. “Longitudinal studies of time-dependent changes in both bladder and erectile function after streptozotocin-induced diabetes in Fischer 344 male rats” BJU Int 2009, 104:1292-300; Suadicani S O, Urban-Maldonado M, Tar M T, Melman A, Spray D C. “Effects of ageing and streptozotocin-induced diabetes on connexin43 and P2 purinoceptor expression in the rat corpora cavernosa and urinary bladder” BJU Int 2009; 103:1686-93. Under anesthesia, a PE 50 catheter with a cuff was surgically inserted into the bladder dome and exited through an orifice made in the back of the animal. […] The bladder catheter was connected to a 2-way valve that is, in turn connected to a pressure transducer as well as an infusion pump (model PHD 2000, Harvard Instruments; MA, USA). Rat bladder was infused with vehicle for 30 min and then cystometry was performed. After that, the same rat was treated with 250 nmols blebbistatin for the same period and cystometry was similarly repeated. One rat had bladder over-activity possibly due to post-surgical infection and thus blebbistatin was kept in the bladder for only about 5 min. The rate of infusion of room temperature saline was set at 10 ml/h. Bladder activity was continuously recorded after the first micturition, and subsequently at least 2 h of data were recorded from each rat. Statistical analysis: Results are expressed as mean±SEM for n experiments. Statistical analysis was performed using either the Student's t-test (when two sample treatments were being compared) or using ANOVA when multiple means were compared. p<0.05 was considered significant.
Bladder function was evaluated using the following urodynamic criteria: bladder capacity: (BC=volume of infused saline discharged at micturition); micturition volume (MV=the volume of urine discharged during micturition); residual volume (RV=volume of infused saline minus micturition volume); basal pressure (BP=the lowest average bladder pressure recorded during cystometry); micturition pressure (MP=peak bladder pressure during micturition); Bcom=bladder compliance; MF=micturition frequency; and the * indicates <0.05 vs vehicle.

[5] = target: Myosin II ATPase in rabbit striated skeletal muscle; conditions: in vitro, read-out: IC50, inhibition of Myosin II ATPase; cited from earlier work
[6] = target: Myosin II ATPase in pig cardiac muscle (Sus scrofa, UniProt P79293); conditions: in vitro, read-out: IC50, inhibition of Myosin II ATPase; cited from earlier work
[7] = target: Smooth Muscle Myosin II ATPase (turkey smooth muscle); conditions: in vitro, read-out: IC50, inhibition of Smooth Muscle Myosin II ATPase; cited from earlier work
[8] = target: Non-muscle Myosin IIA ATPase (Homo sapiens, UniProt P35579); conditions: read-out: IC50, inhibition of Non-muscle Myosin IIA ATPase; cited from earlier work
[9] = test system: adult mouse bladder smooth muscle; conditions: 10 uM; tissue depolarized using potassium chloride; cited from earlier work
newborn mouse bladder = conditions: 10 uM; cited from earlier work
[10] = target: Porcine Cardiac Muscle Myosin II ATPase (Sus scrofa, UniProt P79293); conditions: single concentration of 100 micromolar; Toth table IV; cited from earlier work
[11] = test system: Non-muscle Myosin ATPases; conditions: single concentration of 100 micromolar; Toth table IV; cited from earlier work
[12] = with blebbistatin (10 μM), n = 15 strips from 6 rats
[13] = awake rats, intravesical 250 nmols blebbistatin 30 min, n = 5

Non-muscle Myosin IIA ATPase, sequence (P35579 whole entry): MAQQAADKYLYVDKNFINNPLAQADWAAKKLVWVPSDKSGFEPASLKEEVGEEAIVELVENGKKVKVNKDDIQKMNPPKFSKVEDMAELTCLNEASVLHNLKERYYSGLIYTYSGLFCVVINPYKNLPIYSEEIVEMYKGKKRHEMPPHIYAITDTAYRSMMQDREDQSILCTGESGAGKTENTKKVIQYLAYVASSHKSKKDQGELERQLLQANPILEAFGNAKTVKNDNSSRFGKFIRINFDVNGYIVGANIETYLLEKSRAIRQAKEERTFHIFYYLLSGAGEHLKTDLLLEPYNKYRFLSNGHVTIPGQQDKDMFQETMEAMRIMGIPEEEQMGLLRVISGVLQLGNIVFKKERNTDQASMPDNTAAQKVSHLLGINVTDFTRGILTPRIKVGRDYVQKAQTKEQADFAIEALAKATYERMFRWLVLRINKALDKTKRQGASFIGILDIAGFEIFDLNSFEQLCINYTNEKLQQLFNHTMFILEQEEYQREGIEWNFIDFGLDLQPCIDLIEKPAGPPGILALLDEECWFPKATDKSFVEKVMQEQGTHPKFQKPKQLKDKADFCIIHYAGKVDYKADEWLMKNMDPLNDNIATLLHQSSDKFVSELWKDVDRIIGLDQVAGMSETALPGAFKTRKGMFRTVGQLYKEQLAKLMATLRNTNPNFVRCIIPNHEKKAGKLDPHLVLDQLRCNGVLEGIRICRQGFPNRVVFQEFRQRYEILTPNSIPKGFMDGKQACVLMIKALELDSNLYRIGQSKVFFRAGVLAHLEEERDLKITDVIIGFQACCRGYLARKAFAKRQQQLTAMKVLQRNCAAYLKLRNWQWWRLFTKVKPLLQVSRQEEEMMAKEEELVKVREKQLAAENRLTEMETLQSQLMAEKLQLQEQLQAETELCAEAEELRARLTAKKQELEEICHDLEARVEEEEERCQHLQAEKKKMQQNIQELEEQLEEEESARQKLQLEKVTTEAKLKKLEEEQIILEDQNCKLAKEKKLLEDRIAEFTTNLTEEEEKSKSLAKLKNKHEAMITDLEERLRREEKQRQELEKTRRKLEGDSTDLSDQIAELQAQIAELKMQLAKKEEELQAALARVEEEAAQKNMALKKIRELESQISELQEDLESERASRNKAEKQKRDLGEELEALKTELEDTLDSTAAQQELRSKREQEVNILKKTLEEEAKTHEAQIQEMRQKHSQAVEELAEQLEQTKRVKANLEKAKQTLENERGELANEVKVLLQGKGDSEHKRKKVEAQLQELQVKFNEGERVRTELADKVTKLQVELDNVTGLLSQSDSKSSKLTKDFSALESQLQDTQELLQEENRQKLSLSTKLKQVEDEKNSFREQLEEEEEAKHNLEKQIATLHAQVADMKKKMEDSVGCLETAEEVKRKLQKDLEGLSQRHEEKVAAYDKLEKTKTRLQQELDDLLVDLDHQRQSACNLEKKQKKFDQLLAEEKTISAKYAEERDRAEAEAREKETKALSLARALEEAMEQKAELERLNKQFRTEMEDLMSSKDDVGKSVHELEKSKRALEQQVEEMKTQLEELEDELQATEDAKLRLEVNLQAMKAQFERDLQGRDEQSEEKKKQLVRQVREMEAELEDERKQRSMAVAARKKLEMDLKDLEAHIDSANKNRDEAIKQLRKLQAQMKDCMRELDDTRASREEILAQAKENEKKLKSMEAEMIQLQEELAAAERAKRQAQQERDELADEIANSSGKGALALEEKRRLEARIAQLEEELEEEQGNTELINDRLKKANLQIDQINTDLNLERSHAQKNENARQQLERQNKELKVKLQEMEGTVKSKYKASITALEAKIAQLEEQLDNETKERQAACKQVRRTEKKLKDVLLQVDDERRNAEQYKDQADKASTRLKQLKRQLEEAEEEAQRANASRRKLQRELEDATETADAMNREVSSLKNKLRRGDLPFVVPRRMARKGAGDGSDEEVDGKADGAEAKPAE
Non-muscle Myosin IIA ATPase, sequence (P60660 whole entry partner): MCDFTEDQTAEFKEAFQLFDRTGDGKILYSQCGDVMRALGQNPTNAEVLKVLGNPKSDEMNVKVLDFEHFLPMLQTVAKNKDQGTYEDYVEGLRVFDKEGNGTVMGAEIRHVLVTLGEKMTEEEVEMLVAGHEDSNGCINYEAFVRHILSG
Non-muscle Myosin IIA ATPase, sequence (O14950 whole entry partner): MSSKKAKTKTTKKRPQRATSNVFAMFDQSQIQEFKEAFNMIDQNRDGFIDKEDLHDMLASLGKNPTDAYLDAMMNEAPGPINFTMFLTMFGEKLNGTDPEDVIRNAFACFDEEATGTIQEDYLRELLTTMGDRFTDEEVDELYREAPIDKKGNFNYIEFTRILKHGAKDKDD
Myosin II ATPase in pig cardiac muscle, sequence (P79293 whole entry): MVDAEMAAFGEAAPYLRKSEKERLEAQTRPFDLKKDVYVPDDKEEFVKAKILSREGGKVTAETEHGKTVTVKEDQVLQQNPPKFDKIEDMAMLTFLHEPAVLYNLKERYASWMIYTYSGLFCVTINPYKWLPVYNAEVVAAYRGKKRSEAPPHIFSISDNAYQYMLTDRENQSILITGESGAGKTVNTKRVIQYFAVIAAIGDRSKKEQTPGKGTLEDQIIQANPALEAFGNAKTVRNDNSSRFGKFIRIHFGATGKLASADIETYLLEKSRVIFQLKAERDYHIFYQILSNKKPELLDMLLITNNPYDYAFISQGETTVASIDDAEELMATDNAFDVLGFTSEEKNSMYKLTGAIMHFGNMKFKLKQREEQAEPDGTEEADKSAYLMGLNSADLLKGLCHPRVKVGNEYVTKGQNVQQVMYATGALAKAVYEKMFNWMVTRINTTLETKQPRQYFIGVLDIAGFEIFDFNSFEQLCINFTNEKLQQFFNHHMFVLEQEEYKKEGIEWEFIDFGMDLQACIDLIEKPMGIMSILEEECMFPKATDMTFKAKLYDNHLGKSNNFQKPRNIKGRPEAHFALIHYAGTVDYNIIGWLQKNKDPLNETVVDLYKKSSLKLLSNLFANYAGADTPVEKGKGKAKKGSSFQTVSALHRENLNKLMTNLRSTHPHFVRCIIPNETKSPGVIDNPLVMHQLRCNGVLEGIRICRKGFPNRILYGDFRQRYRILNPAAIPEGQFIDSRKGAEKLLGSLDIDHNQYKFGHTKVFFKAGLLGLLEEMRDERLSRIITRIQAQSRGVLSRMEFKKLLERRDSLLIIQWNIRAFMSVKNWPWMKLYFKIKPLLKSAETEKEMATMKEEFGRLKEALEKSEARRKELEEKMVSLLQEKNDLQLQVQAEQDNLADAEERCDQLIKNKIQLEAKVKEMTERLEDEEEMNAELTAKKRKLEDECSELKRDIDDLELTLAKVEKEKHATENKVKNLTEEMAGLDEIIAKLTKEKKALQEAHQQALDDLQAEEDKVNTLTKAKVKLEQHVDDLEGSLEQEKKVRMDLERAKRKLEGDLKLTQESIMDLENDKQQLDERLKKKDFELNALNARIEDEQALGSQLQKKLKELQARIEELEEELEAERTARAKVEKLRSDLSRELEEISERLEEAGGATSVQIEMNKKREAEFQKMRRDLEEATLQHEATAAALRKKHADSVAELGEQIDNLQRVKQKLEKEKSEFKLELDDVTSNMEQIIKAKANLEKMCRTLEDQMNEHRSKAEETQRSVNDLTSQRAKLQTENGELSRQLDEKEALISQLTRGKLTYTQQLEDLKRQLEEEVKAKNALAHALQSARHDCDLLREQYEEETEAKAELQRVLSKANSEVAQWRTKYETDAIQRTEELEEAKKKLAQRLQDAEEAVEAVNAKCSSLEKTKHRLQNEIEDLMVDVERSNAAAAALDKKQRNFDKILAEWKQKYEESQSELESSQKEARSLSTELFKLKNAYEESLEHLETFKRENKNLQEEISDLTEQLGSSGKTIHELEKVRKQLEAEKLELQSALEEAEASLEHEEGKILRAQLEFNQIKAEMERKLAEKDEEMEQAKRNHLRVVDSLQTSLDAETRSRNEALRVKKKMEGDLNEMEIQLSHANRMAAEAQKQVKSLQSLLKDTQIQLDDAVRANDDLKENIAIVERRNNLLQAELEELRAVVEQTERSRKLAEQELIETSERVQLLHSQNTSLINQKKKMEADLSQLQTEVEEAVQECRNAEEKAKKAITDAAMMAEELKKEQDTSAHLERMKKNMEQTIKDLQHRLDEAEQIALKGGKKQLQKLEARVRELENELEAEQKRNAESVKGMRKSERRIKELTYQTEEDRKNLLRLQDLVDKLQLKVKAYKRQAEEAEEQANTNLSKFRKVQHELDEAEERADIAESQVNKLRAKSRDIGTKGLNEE
Porcine Cardiac Muscle Myosin II ATPase, sequence (P79293 whole entry): as above

Q: What does the source list for Cc1ccc2c(c1)C(=O)C1(O)CCN(c3ccccc3)C1=N2 (racemic) [blebbistatin, 3a-hydroxy-6-methyl-1-phenyl-1,2,3,3a-tetrahydro-4H-pyrrolo[2,3b]-quinolin-4-one]?
A: time needed to relax the muscle strip in vitro in a tissue bath [1]: 30 to 60 min; baseline and peak phasic force of contraction (FIG. 3) ([1]; 10 uM, strip pre-contracted with 1 uM carbacol): significant decrease; relaxation of KCl and CC evoked detrusor contraction ([1]; 1 μm): 20-30%; relaxation of KCl and CC evoked detrusor contraction ([1]; 5 μm): 80-100%; relaxation of KCl and carbachol induced rat detrusor contraction (in words) ([1]; dose-dependent, 1-10 μM cumulative): completely relaxed; attenuation of carbachol (CC) responsiveness [2]: about 65%; attenuation of carbachol (CC) responsiveness ([2]; listed as BLEB): about 65%; attenuation of carbachol (CC) responsiveness ([2]; listed as racemic blebbistatin): ~65%; lowering of basal tone ([2]; pre-incubation 10 μm for 30 min): around 300 mg; inhibition of EFS-induced bladder contraction [3]: about 50%; inhibition of EFS-induced bladder contraction ([3]; listed as racemic blebbistatin): 50%; relaxation of human bladder pre-contracted with endothelin-1 ([4]; 1 μM): 60%; relaxation of human bladder pre-contracted with endothelin-1 ([4]; 3 am (so in the source)): ~100%; relaxation/block of endothelin-1 induced human bladder contraction (in words) [4]: completely blocked; relaxation/block of endothelin-1 induced human bladder contraction (in words) ([4]; listed as Racemic blebbistatin): completely relaxed; decrease in the amplitude of spontaneous smooth muscle contractions (rat bladder strips; 10 am (so in the source)): ~60%; Amplitude of spontaneous contractions (rat bladder strips; [12]): 118 ± 19.33 mg and 120 ± 19 mg; Basal Tone (rat bladder strips; [12]): 310 ± 16 mg; Frequency of spontaneous contractions (rat bladder strips; [12]): 5.5 +/− 1.2 cycles/min; BC (bladder capacity) (bladder of awake rat; [13]): 1.4 +/− 0.16 * ml; BP (basal pressure) (bladder of awake rat; [13]): 6.9 +/− 1.8 cm H20; MF (micturition frequency) (bladder of awake rat; [13]): 7.2 +/− 1.3 *; MP (micturition pressure) (bladder of awake rat; [13]): 42 +/− 13 cmH20; MV (micturition volume) (bladder of awake rat; [13]): 1.4 +/− 10 * ml; RV (residual volume) (bladder of awake rat; [13]): 0.03 ± 0.01 mL; decline of voiding frequency (bladder of awake rat; rat with overactive bladder (OAB), blebbistatin kept in bladder about 5 min): over 50%; IC50 [5]: 0.5 µM; IC50 [6]: 1.2 µM; IC50 [7]: 79.6 µM; IC50 [8]: 5.1 µM; block of adult mouse bladder smooth muscle contraction [9]: did not block; inhibition of bladder contraction of a newborn mouse (newborn mouse bladder): did inhibit

Q: Which “bladder relaxation in vitro, enantiomer compared with racemic blebbistatin mixture” value [1] does the source give for Cc1ccc2c(c1)C(=O)C1(O)CCN(c3ccccc3)C1=N2 (single isomer, unassigned; (+)) [(+)-blebbistatin] here?
A: did not induce significant bladder relaxation

Q: Which “bladder relaxation in vitro, enantiomer compared with racemic blebbistatin mixture” value [1] does the source give for Cc1ccc2c(c1)C(=O)[C@]1(O)CCN(c3ccccc3)C1=N2 [(−)-blebbistatin, (−)-3aS-hydroxy-6-methyl-1-phenyl-1,2,3,3a-tetrahydro-4H-pyrrolo[2,3b] quinolin-4-one] here?
A: equipotent

Q: And the “inhibition of cardiac muscle Myosin ATPase” value [10]?
A: inhibited

Q: What about the “inhibition of Non-muscle Myosin ATPases” value [11] of the same molecule?
A: inhibited

Q: Which “time needed to relax the muscle strip in vitro in a tissue bath” value [1] does the source give for CN1[C@@H]2CC[C@H]1C[C@@H](OC(=O)C(CO)c1ccccc1)C2 (stereo partly shown) [atropine] here?
A: 3 to 5 min
